Test: recombinant barcode read abundance after kanamycin selection (control-corrected) (log10(CPM+1)); higher = more efficient recombination; sequences stand for … in AGTGCAGAGAAAATCGGCCAGTTTTCTCTGCCTGCAGTCCGCATGCCGT…AGATTTATGCAGCGGACTGCCTTTCTCCCAAAGTGATAAACCGGACAGTATCATGGACCGGTTTTCCCGGTAATCCGTATTTGCAAGGTTGGTTTCACT; site = the 11-nt target
Procedure, shortened: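 Each value is log10(CPM+1). It describes recombination efficiency, taken as averaged, control-corrected counts per million of barcodes at recombinant junctions. The pooled E. coli library paired targets with IS621 bridge RNA target-binding loops, was co-electroporated with a donor plasmid, and was plated twice on chloramphenicol/ampicillin LB agar (control) and twice on chloramphenicol/ampicillin/kanamycin containing 0.1 mM IPTG.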
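Also: IS621 recombinase and bridge RNA in Escherichia coli cells.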

Sequence	recombinant barcode read abundance (log10)
CATCCGACTTGGGTTCTAACCTGTTGCCT (site CATCCGACTAG)	0.92
CATCCGACTTGGGTTCTAACCTGTTGCCT (site CATCCGCCTAG)	0.163
CATCCGACTTGGGTTCTAACCTGTTGCCT (site CATCCGGCTAG)	0.33
CATCCGACTTGGGTTCTAACCTGTTGCCT (site CATCCGTCTAG)	0.0237
CATCCTCCTTGGGTTCTAACCTGTTGCTG (site CATCCTACTCC)	0.463
CATCCTCCTTGGGTTCTAACCTGTTGCTG (site CATCCTCCTCA)	0.666
CATCGGACTTGGGTTCTAACCTGTTGCAA (site CATCGGACTTT)	1.14
CATCGGACTTGGGTTCTAACCTGTTGCAA (site GGCTAACCTAG)	0.336
CATGACACTTGGGTTCTAACCTGTTGCCT (site CATGACACTAG)	2.45
CATGACACTTGGGTTCTAACCTGTTGCCT (site CATGCCGCTAG)	0.0486
CATGCTACTTGGGTTCTAACCTGTTGCTC (site CATGCGACTCA)	0.191
CATGCTACTTGGGTTCTAACCTGTTGCTC (site CATGCTACTGA)	0.627
CATGTGCCTTGGGTTCTAACCTGTTGCCT (site CATGTGCCTAG)	1.89
CATGTGCCTTGGGTTCTAACCTGTTGCCT (site TATGCGCCTAG)	0.329
CATTATCCTTGGGTTCTAACCTGTTGCGT (site CATTATCCTAC)	1.59
CATTATCCTTGGGTTCTAACCTGTTGCGT (site CATTGTCCTAC)	0.0752
CATTCCTCTTGGGTTCTAACCTGTTGCCT (site CATTCCTCTAG)	0.0779
CATTCCTCTTGGGTTCTAACCTGTTGCCT (site CCTTCCTCTAG)	0.122
CATTCCTCTTGGGTTCTAACCTGTTGCCT (site CGTTCCTCTAG)	0.0677
CATTCCTCTTGGGTTCTAACCTGTTGCCT (site CTTTCCTCTAG)	0.0613
CATTCGCCTTGGGTTCTAACCTGTTGCGT (site CATTCGCCTAC)	0.329
CATTCGCCTTGGGTTCTAACCTGTTGCGT (site TGGCTAGCTGT)	0.138

Sequence	recombinant barcode read abundance (log10)
CATTGCCCTTGGGTTCTAACCTGTTGCCT (site CATTGCCCTAG)	0.234
CATTGCCCTTGGGTTCTAACCTGTTGCCT (site CCTTGCCCTAG)	0.2
CATTGCCCTTGGGTTCTAACCTGTTGCCT (site CGTTGCCCTAG)	0.242
CATTGCCCTTGGGTTCTAACCTGTTGCCT (site CTTTGCCCTAG)	0.0205
CATTGGACTTGGGTTCTAACCTGTTGCTT (site AATTGGACTAA)	0.222
CATTGGACTTGGGTTCTAACCTGTTGCTT (site CATTGGACTAA)	0.371
CATTGGACTTGGGTTCTAACCTGTTGCTT (site GATTGGACTAA)	0.023
CATTGGACTTGGGTTCTAACCTGTTGCTT (site TATTGGACTAA)	0.111
CATTGTACTTGGGTTCTAACCTGTTGCTA (site CATCGGACTTA)	0.104
CATTGTACTTGGGTTCTAACCTGTTGCTA (site CATTGTACTTA)	0.457
CCAAAGACTTGGGTTCTAACCTGTTGCAT (site CCAAAGACTAT)	0.523
CCAAAGACTTGGGTTCTAACCTGTTGCAT (site CTAAAGACTGT)	0.334
CCAACCGCTTGGGTTCTAACCTGTTGCCT (site CAAACCGCTAG)	0.0169
CCAACCGCTTGGGTTCTAACCTGTTGCCT (site CCAACCGCTAG)	0.423
CCAACCGCTTGGGTTCTAACCTGTTGCCT (site CGAACCGCTAG)	0.043
CCAACCGCTTGGGTTCTAACCTGTTGCCT (site CTAACCGCTAG)	0.0644
CCAAGCCCTTGGGTTCTAACCTGTTGCCT (site CCAAGCACTAG)	0.202
CCAAGCCCTTGGGTTCTAACCTGTTGCCT (site CCAAGCCCTAG)	0.142
CCAAGCCCTTGGGTTCTAACCTGTTGCCT (site CCAAGCGCTAG)	0.0593
CCAAGCCCTTGGGTTCTAACCTGTTGCCT (site CCAAGCTCTAG)	0.0835
CCAAGGACTTGGGTTCTAACCTGTTGCCT (site CCAAGGACTAG)	0.348
CCAAGGACTTGGGTTCTAACCTGTTGCCT (site CCACGGACTAG)	0.0394

Sequence	recombinant barcode read abundance (log10)
CCAAGGACTTGGGTTCTAACCTGTTGCCT (site CCAGGGACTAG)	0.47
CCAAGGACTTGGGTTCTAACCTGTTGCCT (site CCATGGACTAG)	0.0382
CCAAGGGCTTGGGTTCTAACCTGTTGCTG (site CCAAGGGCTCA)	1.31
CCAAGGGCTTGGGTTCTAACCTGTTGCTG (site CCAAGGGCTCC)	0.136
CCAAGGGCTTGGGTTCTAACCTGTTGCTG (site CCAAGGGCTCG)	0.0611
CCAAGGGCTTGGGTTCTAACCTGTTGCTG (site CCAAGGGCTCT)	0.727
CCACAGTCTTGGGTTCTAACCTGTTGCCT (site CCACAGTCTAG)	1.44
CCACAGTCTTGGGTTCTAACCTGTTGCCT (site CCACCGTCTAG)	0.117
CCACAGTCTTGGGTTCTAACCTGTTGCCT (site CCACGGTCTAG)	0.169
CCACAGTCTTGGGTTCTAACCTGTTGCCT (site CCACTGTCTAG)	0.0628
CCACGAGCTTGGGTTCTAACCTGTTGCGG (site CCACGAGCTCC)	1.4
CCACGAGCTTGGGTTCTAACCTGTTGCGG (site CGACGAGCTCC)	0.148
CCACGGCCTTGGGTTCTAACCTGTTGCAT (site CCACGGCCTAT)	1.21
CCACGGCCTTGGGTTCTAACCTGTTGCAT (site CCTCGGCCTAT)	0
CCACTACCTTGGGTTCTAACCTGTTGCCT (site CCACTACCTAG)	0.253
CCACTACCTTGGGTTCTAACCTGTTGCCT (site CCACTCCCTAG)	0.0236
CCACTACCTTGGGTTCTAACCTGTTGCCT (site CCACTGCCTAG)	0.0373
CCACTACCTTGGGTTCTAACCTGTTGCCT (site CCACTTCCTAG)	0.0936
CCACTGTCTTGGGTTCTAACCTGTTGCCT (site CCACAGTCTAG)	0.806
CCACTGTCTTGGGTTCTAACCTGTTGCCT (site CCACCGTCTAG)	0.0386
CCACTGTCTTGGGTTCTAACCTGTTGCCT (site CCACGGTCTAG)	0.0729
CCACTGTCTTGGGTTCTAACCTGTTGCCT (site CCACTGTCTAG)	0.632

Sequence	recombinant barcode read abundance (log10)
CCAGAGTCTTGGGTTCTAACCTGTTGCCA (site CCAGAGTCTCG)	0
CCAGAGTCTTGGGTTCTAACCTGTTGCCA (site CCAGAGTCTTG)	1.22
CCAGCAGCTTGGGTTCTAACCTGTTGCCT (site CCAGAAGCTAG)	0.0762
CCAGCAGCTTGGGTTCTAACCTGTTGCCT (site CCAGCAGCTAG)	0.675
CCAGCAGCTTGGGTTCTAACCTGTTGCCT (site CCAGGAGCTAG)	0.0858
CCAGCAGCTTGGGTTCTAACCTGTTGCCT (site CCAGTAGCTAG)	0.76
CCAGGTCCTTGGGTTCTAACCTGTTGCGT (site CCAGGTCCTAC)	2.45
CCAGGTCCTTGGGTTCTAACCTGTTGCGT (site CCAGGTCCTAT)	1.81
CCATACGCTTGGGTTCTAACCTGTTGCCT (site CCATACGCTAG)	0.178
CCATACGCTTGGGTTCTAACCTGTTGCCT (site CGAGACGCTAG)	0.189
CCATCAACTTGGGTTCTAACCTGTTGCCT (site CCATCAACTAG)	0.0699
CCATCAACTTGGGTTCTAACCTGTTGCCT (site CCATGAACTTG)	0.0637
CCATCTCCTTGGGTTCTAACCTGTTGCCT (site ACATCTCCTAG)	0.0982
CCATCTCCTTGGGTTCTAACCTGTTGCCT (site CCATCTCCTAG)	0.492
CCATCTCCTTGGGTTCTAACCTGTTGCCT (site GCATCTCCTAG)	0.127
CCATCTCCTTGGGTTCTAACCTGTTGCCT (site TCATCTCCTAG)	0.0439
CCGAAGCCTTGGGTTCTAACCTGTTGCCT (site CCGAAGCCTAG)	1.01
CCGAAGCCTTGGGTTCTAACCTGTTGCCT (site CCGCAGCCTAG)	0.256
CCGAAGCCTTGGGTTCTAACCTGTTGCCT (site CCGGAGCCTAG)	0.144
CCGAAGCCTTGGGTTCTAACCTGTTGCCT (site CCGTAGCCTAG)	0.143

Reference: the supplement of paper PMC11208160
